In publication PMC10937419, “Exploring pyrrolidinyl-spirooxindole natural products as promising platforms for the synthesis of novel spirooxindoles as EGFR/CDK2 inhibitors for halting breast cancer cells” (Frontiers in Chemistry, 2024):
Like-named read-outs stand apart in the source and are kept apart here.

Key:
MDA-MB-231 cells = test: MTT cytotoxicity assay, MDA-MB-231 breast cancer cells; assay type: cell-based; settings: mean ± SD of three independent trials, read-out: IC50 ± SD, MDA-MB-231
Protocol: (§1) All cells were incubated at 37 °C in 5% carbon dioxide atmosphere (NuAire). Cells were plated at a density of 5x10^4 cells in triplicates in a plate of 96 wells. On the second day, cells were treated with the compounds with concentrations of (0.01, 0.1, 1, 10, and 100 µM). Cell viability was assessed using the MTT assay [6].

WISH cells = test: MTT cytotoxicity (safety) assay, normal WISH cells; assay type: cell-based; settings: mean ± SD of three independent trials
Protocol: The cytotoxicity of the synthesized compounds was tested using the MTT assay on breast cancer cells (MCF-7 and MDA-MB-231).
The methods for the Cytotoxic activity ([Mosmann, 1983]; [Nafie et al., 2020a]); EGFR/CDK-2 enzyme inhibition ([Nafie et al., 2022a]); Flow cytometry using Annexin V/PI staining; Gene expression analysis using RT-PCR ([Nafie et al., 2022b]); are amended in the Supplementary Material S1.
Both breast cancer; MCF-7 and MDA-MB-231 and normal (WISH) cells were purchased from the National Research Institute, Egypt, and maintained in RPMI-1640 medium L-Glutamine (Lonza Verviers SPRL, Belgium, cat#12-604F). All cells were incubated at 37 °C in 5% carbon dioxide atmosphere (NuAire). Cells were plated at a density of 5x10^4 cells in triplicates in a plate of 96 wells. On the second day, cells were treated with the compounds with concentrations of (0.01, 0.1, 1, 10, and 100 µM). Cell viability was assessed using the MTT assay [6].

CDK-2 kinase = molecular target: T1, CDK-2 kinase (Homo sapiens, UniProt P24941); test: CDK-2 kinase inhibition assay (Kinase-Glo Plus); assay type: biochemical; settings: for CDK-2 kinase activity remaining (% of control): signal relative to control; for CDK-2 kinase activity remaining (% of control) / inhibition at 0.01 µM / inhibition at 0.1 µM / inhibition at 1 µM / inhibition at 2.5 µM / inhibition at 5 µM / inhibition at 10 µM: ΔT=30 min; for inhibition at 0.01 µM / inhibition at 0.1 µM / inhibition at 1 µM / inhibition at 2.5 µM / inhibition at 5 µM / inhibition at 10 µM: read-out: % of inhibition, CDK2; for IC50: average of three independent replicates
T1 construct: purchased not clearly printed (Promega, USA is printed after 'Kinase-Glo Plus'; #79599 is a BPS Bioscience number to my knowledge) 79599
Protocol: (§2) Inhibitory activities of 5g, 5l, and 5n were tested against EGFR and CDK-2.
(§3) Plus, Promega, USA) inhibition assay.

MCF-7 cells = test: MTT cytotoxicity assay, MCF-7 breast cancer cells; assay type: cell-based; settings: Homo sapiens, MCF7; MTT assay; mean ± SD of three independent trials; read-out: IC50 ± SD, MCF-7
Protocol: as §1

EGFR kinase = molecular target: T2, EGFR kinase (Homo sapiens, UniProt P00533); test: EGFR kinase inhibition assay; assay type: biochemical; settings: for % remaining EGFR kinase activity (relative to control): signal relative to control; for % remaining EGFR kinase activity (relative to control) / inhibition at 0.01 µM / inhibition at 0.1 µM / inhibition at 1 µM / inhibition at 2.5 µM / inhibition at 5 µM / inhibition at 10 µM: ΔT=30 min; for IC50: average of three independent replicates; for % Of EGFR inhibition: concentration not given in Table 2, matches 10 µM in the 4th table
T2 construct: purchased BPS Bioscience Corporation 40321
T2 sequence (P00533 25-1210): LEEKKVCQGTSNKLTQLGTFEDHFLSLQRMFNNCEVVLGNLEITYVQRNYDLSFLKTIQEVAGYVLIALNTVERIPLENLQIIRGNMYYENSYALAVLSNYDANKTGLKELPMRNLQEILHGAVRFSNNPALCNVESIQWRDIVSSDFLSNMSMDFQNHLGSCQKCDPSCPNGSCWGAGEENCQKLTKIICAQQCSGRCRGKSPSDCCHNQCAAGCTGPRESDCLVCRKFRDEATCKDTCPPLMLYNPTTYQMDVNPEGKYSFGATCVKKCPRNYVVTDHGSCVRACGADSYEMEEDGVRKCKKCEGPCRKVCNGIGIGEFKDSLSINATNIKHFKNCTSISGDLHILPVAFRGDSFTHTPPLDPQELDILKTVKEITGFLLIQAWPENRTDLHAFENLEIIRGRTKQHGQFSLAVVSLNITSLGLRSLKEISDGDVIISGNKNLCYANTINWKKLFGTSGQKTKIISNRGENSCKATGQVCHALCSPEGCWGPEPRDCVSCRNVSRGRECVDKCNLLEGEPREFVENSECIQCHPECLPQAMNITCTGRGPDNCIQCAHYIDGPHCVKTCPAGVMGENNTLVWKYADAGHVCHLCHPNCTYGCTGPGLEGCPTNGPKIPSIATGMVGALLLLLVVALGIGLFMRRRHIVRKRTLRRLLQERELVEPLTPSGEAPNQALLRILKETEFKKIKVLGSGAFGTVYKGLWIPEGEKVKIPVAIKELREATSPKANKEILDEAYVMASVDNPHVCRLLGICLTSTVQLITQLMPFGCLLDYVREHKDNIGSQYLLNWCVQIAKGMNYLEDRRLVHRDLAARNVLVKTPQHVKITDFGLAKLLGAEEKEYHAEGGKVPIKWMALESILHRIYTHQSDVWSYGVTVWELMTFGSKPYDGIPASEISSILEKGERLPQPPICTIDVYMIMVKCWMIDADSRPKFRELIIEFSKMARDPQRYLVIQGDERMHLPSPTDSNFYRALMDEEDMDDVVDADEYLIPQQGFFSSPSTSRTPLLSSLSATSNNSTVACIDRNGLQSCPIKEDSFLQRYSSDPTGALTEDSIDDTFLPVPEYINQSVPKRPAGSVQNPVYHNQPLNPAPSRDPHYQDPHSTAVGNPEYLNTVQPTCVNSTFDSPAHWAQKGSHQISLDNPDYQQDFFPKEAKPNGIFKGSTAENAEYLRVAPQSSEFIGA
Protocol: as §2, §3

[1] = Homo sapiens, MDA-MB-231, MTT assay

**Q.** `COC(=O)[C@@H](NC(=O)CN1C(=O)S[C@@]2(C1=O)[C@@H](c1ccc(Br)cc1)[C@H]1CSCN1[C@@]21C(=O)Nc2cc(Cl)ccc21)C(C)C` [Compound 5l, Methyl (2-((3S,6′S,7′S,7a′S)-7'-(4-bromophenyl)-6-chloro-2,2″,4″-trioxo-7′,7a′-dihydro-1′H,3′H-dispiro [indoline-3,5′-pyrrolo [1,2-c]thiazole-6′,5″-thiazolidin]-3″-yl)acetyl)valinate] was tested. Which IC50 (MDA-MB-231 cells; [1]) did it give?
**A.** 8.45 µM

**Q.** And the IC50 (MDA-MB-231 cells; MTT assay, listed as C00012)?
**A.** 8.43 ± 0.6 µM

**Q.** What about the IC50 (WISH cells) of the same compound?
**A.** 43.5 ± 2 µM

**Q.** And the “CDK-2 kinase activity remaining (% of control)” value (CDK-2 kinase; 0.01 µM)?
**A.** 90.99%

**Q.** And the inhibition at 0.01 µM (CDK-2 kinase; 0.01 µM)?
**A.** 9.01%

**Q.** And the “CDK-2 kinase activity remaining (% of control)” value (CDK-2 kinase; 0.1 µM)?
**A.** 76%

**Q.** What about the inhibition at 0.1 µM (CDK-2 kinase; 0.1 µM) of the same compound?
**A.** 24%

**Q.** What about the “CDK-2 kinase activity remaining (% of control)” value (CDK-2 kinase; 1 µM) of the same compound?
**A.** 60.44%

**Q.** What about the inhibition at 1 µM (CDK-2 kinase; 1 µM) of the same compound?
**A.** 39.6%

**Q.** What about the “CDK-2 kinase activity remaining (% of control)” value (CDK-2 kinase; 2.5 µM) of the same compound?
**A.** 56.06%

**Q.** What about the inhibition at 2.5 µM (CDK-2 kinase; 2.5 µM) of the same compound?
**A.** 43.9%

**Q.** And the “CDK-2 kinase activity remaining (% of control)” value (CDK-2 kinase; 5 µM)?
**A.** 36.07%

**Q.** What about the inhibition at 5 µM (CDK-2 kinase; 5 µM) of the same compound?
**A.** 63.9%

**Q.** And the “CDK-2 kinase activity remaining (% of control)” value (CDK-2 kinase; 10 µM)?
**A.** 29.31%

**Q.** What about the inhibition at 10 µM (CDK-2 kinase; 10 µM) of the same compound?
**A.** 89.4%

**Q.** What about the IC50 (CDK-2 kinase) of the same compound?
**A.** 0.345 µM

**Q.** What about the IC50 (MCF-7 cells) of the same compound?
**A.** 3.4 ± 0.5 µM

**Q.** And the “% remaining EGFR kinase activity (relative to control)” value (EGFR kinase; 0.01 µM)?
**A.** 69.72%

**Q.** And the inhibition at 0.01 µM (EGFR kinase; 0.01 µM)?
**A.** 30.3%

**Q.** And the “% remaining EGFR kinase activity (relative to control)” value (EGFR kinase; 0.1 µM)?
**A.** 60.14%

**Q.** What about the inhibition at 0.1 µM (EGFR kinase; 0.1 µM) of the same compound?
**A.** 39.9%

**Q.** What about the “% remaining EGFR kinase activity (relative to control)” value (EGFR kinase; 1 µM) of the same compound?
**A.** 48.86%

**Q.** And the inhibition at 1 µM (EGFR kinase; 1 µM)?
**A.** 51.1%

**Q.** And the “% remaining EGFR kinase activity (relative to control)” value (EGFR kinase; 2.5 µM)?
**A.** 41.25%

**Q.** And the inhibition at 2.5 µM (EGFR kinase; 2.5 µM)?
**A.** 58.7%

**Q.** And the “% remaining EGFR kinase activity (relative to control)” value (EGFR kinase; 5 µM)?
**A.** 19.88%

**Q.** And the inhibition at 5 µM (EGFR kinase; 5 µM)?
**A.** 80.1%

**Q.** And the “% remaining EGFR kinase activity (relative to control)” value (EGFR kinase; 10 µM)?
**A.** 11.75%

**Q.** And the inhibition at 10 µM (EGFR kinase; 10 µM)?
**A.** 89.9%

**Q.** And the IC50 (EGFR kinase)?
**A.** 0.067 ± 0.001 µM

**Q.** And the “% Of EGFR inhibition” value (EGFR kinase)?
**A.** 89.8 ± 2.8%

**Q.** With `COC(=O)[C@H](C)NC(=O)CN1C(=O)S[C@@]2(C1=O)[C@@H](c1ccc(Cl)cc1)[C@H]1CSCN1[C@@]21C(=O)Nc2cc(Cl)ccc21` [Compound 5n, Methyl (2-((3S,6′S,7′S,7a′S)-6-chloro-7'-(4-chlorophenyl)-2,2″,4″-trioxo-7′,7a′-dihydro-1′H,3′H-dispiro [indoline-3,5′-pyrrolo [1,2-c]thiazole-6′,5″-thiazolidin]-3″-yl)acetyl)alaninate] as the compound, how does the IC50 (MDA-MB-231 cells; [1]) read?
**A.** 5.3 ± 0.4 µM

**Q.** And the IC50 (WISH cells)?
**A.** 47.2 ± 2.1 µM

**Q.** What about the “CDK-2 kinase activity remaining (% of control)” value (CDK-2 kinase; 0.01 µM) of the same compound?
**A.** 91.05%

**Q.** And the inhibition at 0.01 µM (CDK-2 kinase; 0.01 µM)?
**A.** 8.95%

**Q.** And the “CDK-2 kinase activity remaining (% of control)” value (CDK-2 kinase; 0.1 µM)?
**A.** 74.4404%

**Q.** What about the inhibition at 0.1 µM (CDK-2 kinase; 0.1 µM) of the same compound?
**A.** 25.6%

**Q.** What about the “CDK-2 kinase activity remaining (% of control)” value (CDK-2 kinase; 1 µM) of the same compound?
**A.** 63.25%

**Q.** And the inhibition at 1 µM (CDK-2 kinase; 1 µM)?
**A.** 36.8%

**Q.** And the “CDK-2 kinase activity remaining (% of control)” value (CDK-2 kinase; 2.5 µM)?
**A.** 61.79%

**Q.** What about the inhibition at 2.5 µM (CDK-2 kinase; 2.5 µM) of the same compound?
**A.** 38.2%

**Q.** What about the “CDK-2 kinase activity remaining (% of control)” value (CDK-2 kinase; 5 µM) of the same compound?
**A.** 47.27%

**Q.** And the inhibition at 5 µM (CDK-2 kinase; 5 µM)?
**A.** 52.7%

**Q.** What about the “CDK-2 kinase activity remaining (% of control)” value (CDK-2 kinase; 10 µM) of the same compound?
**A.** 42.84%

**Q.** What about the inhibition at 10 µM (CDK-2 kinase; 10 µM) of the same compound?
**A.** 88.7%

**Q.** What about the IC50 (CDK-2 kinase) of the same compound?
**A.** 0.557 µM

**Q.** And the “% Of CDK-2 inhibition” value (CDK-2 kinase; concentration not given in Table 2, matches 10 µM in the 5th table)?
**A.** 88.7%

**Q.** What about the IC50 (MCF-7 cells) of the same compound?
**A.** 3.9 ± 0.3 µM

**Q.** What about the “% remaining EGFR kinase activity (relative to control)” value (EGFR kinase; 0.01 µM) of the same compound?
**A.** 71.48%

**Q.** And the inhibition at 0.01 µM (EGFR kinase; 0.01 µM)?
**A.** 28.5%

**Q.** And the “% remaining EGFR kinase activity (relative to control)” value (EGFR kinase; 0.1 µM)?
**A.** 59.63%

**Q.** What about the inhibition at 0.1 µM (EGFR kinase; 0.1 µM) of the same compound?
**A.** 40.4%

**Q.** And the “% remaining EGFR kinase activity (relative to control)” value (EGFR kinase; 1 µM)?
**A.** 36.13%

**Q.** And the inhibition at 1 µM (EGFR kinase; 1 µM)?
**A.** 63.9%

**Q.** And the “% remaining EGFR kinase activity (relative to control)” value (EGFR kinase; 2.5 µM)?
**A.** 37.42%

**Q.** And the inhibition at 2.5 µM (EGFR kinase; 2.5 µM)?
**A.** 62.6%

**Q.** And the “% remaining EGFR kinase activity (relative to control)” value (EGFR kinase; 5 µM)?
**A.** 30.59%

**Q.** And the inhibition at 5 µM (EGFR kinase; 5 µM)?
**A.** 69.4%

**Q.** What about the “% remaining EGFR kinase activity (relative to control)” value (EGFR kinase; 10 µM) of the same compound?
**A.** 8.54%

**Q.** And the inhibition at 10 µM (EGFR kinase; 10 µM)?
**A.** 91.2%

**Q.** What about the IC50 (EGFR kinase) of the same compound?
**A.** 0.04 ± 0.001 µM

**Q.** What about the “% Of EGFR inhibition” value (EGFR kinase) of the same compound?
**A.** 91.2 ± 2.1%
